Measured values from US11590116B2 (THERAVANCE BIOPHARMA R&D IP, LLC, priority 2019, dated 2023).

How the values were obtained:
[1] = molecular target: T1, recombinant human ALK5 (TGF-βR1) protein (Homo sapiens, UniProt P36897); test: Biochemical ALK5 (TGF-βR1) assay to measure pKi (LANCE Ultra ULight kinase assay); conditions: apparent pKi from pIC50 by Cheng-Prusoff, read-out: ALK5 pKi (converted)
T1 construct: purchased Life Technologies PR9075A
T1 sequence (P36897 34-503): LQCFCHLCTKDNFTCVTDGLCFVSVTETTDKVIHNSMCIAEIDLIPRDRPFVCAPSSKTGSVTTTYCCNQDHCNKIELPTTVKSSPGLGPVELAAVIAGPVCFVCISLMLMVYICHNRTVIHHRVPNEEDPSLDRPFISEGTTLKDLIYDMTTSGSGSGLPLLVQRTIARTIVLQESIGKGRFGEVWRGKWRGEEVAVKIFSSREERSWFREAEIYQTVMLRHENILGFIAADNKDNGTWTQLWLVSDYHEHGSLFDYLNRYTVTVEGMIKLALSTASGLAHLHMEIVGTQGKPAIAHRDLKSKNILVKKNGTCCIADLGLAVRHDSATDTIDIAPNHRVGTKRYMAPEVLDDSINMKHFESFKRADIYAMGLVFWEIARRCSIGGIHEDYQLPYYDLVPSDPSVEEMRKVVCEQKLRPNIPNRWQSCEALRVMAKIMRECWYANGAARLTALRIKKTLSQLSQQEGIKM
In short: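 After a 60 min room-temperature preincubation of ALK5 with compound, phosphorylation proceeds 60 min at 37 °C on ATP addition (125 μM as 5× stock). Detection: Eu-labelled phospho-Thr1342 Topo IIα antibody in EDTA buffer, pH 7.0; emission 665 nm.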

[2] = test system: TGF-β-stimulated SMAD3 phosphorylation in BEAS-2B cells; test: Cellular ALK5 potency assay, inhibition of TGF-β stimulated pSMAD3 formation in BEAS-2B cells; type: cell-based; conditions: Homo sapiens; inhibition of TGF-β stimulated pSMAD3 formation, BEAS-2B cells; read-out: BEAS2B pIC50 (converted)
In short: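 BEAS-2B human lung epithelial cells pre-treated 1 h at 37° C with compound in HBSS/25 mM HEPES/1% BSA, then stimulated 30 min with 10 ng/mL TGF-β (final). Lysates assayed for pSMAD3 by AlphaLISA; pIC50 from dose-dependent change versus stimulated untreated cells.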

SMILES | Ki [1] [nM] | IC50 [2] [nM]
Cc1cccc(-c2[nH]cnc2-c2ccc3ncc(-c4nc(C(=O)OCCN5CCNCC5)cs4)cc3c2)n1 [Compound 1145, 2-piperazin-1-ylethyl 2-[6-[5-(6-methyl-2-pyridyl)-1H-imidazol-4-yl]-3-quinolyl]thiazole-4-carboxylate] | 0.0398 to 0.316 | 25.1 to 158
Cc1cccc(-c2[nH]cnc2-c2ccc3ncc(-c4csc(C(=O)OC5CCNCC5)n4)cc3c2)n1 [Compound 1146, 4-piperidyl 4-[6-[5-(6-methyl-2-pyridyl)-1H-imidazol-4-yl]-3-quinolyl]thiazole-2-carboxylate] | < 0.0316 | 25.1 to 158
Cc1cccc(-c2[nH]cnc2-c2ccc3ncc(-c4csc(C(=O)OCC5CNC5)n4)cc3c2)n1 [Compound 1148, azetidin-3-ylmethyl 4-[6-[5-(6-methyl-2-pyridyl)-1H-imidazol-4-yl]-3-quinolyl]thiazole-2-carboxylate] | 0.0398 to 0.316 | 25.1 to 158
Cc1cccc(-c2[nH]cnc2-c2ccc3ncc(C(=O)O[C@@H]4CCNC4)cc3c2)n1 [Compound 1149, [(3R)-pyrrolidin-3-yl] 6-[5-(6-methyl-2-pyridyl)-1H-imidazol-4-yl]quinoline-3-carboxylate] | 0.398 to 3.16 | 200 to 1260
Cc1cccc(-c2[nH]cnc2-c2ccc3ncc(C4=CCN(C(=O)C5CCCNC5)CC4)cc3c2)n1 (stereo not drawn) [Compound 1150, [4-[6-[5-(6-methyl-2-pyridyl)-1H-imidazol-4-yl]-3-quinolyl]-3,6-dihydro-2H-pyridin-1-yl]-(3-piperidyl)methanone] | 0.0398 to 0.316 | 25.1 to 158
Cc1cccc(-c2[nH]cnc2-c2ccc3ncc(-c4cccc(C(=O)OCCN5CCNCC5)n4)cc3c2)n1 [Compound 1151, 2-piperazin-1-ylethyl 6-[6-[5-(6-methyl-2-pyridyl)-1H-imidazol-4-yl]-3-quinolyl]pyridine-2-carboxylate] | 0.0398 to 0.316 | 200 to 1260
Cc1cccc(-c2[nH]cnc2-c2ccc3ncc(-c4csc(C(=O)O)n4)cc3c2)n1 [Compound 1152, 4-[6-[5-(6-methyl-2-pyridyl)-1H-imidazol-4-yl]-3-quinolyl]thiazole-2-carboxylic acid] | < 0.0316 | < 20
Cc1cccc(-c2[nH]cnc2-c2ccc3ncc(C(=O)OCCC4CCNC4)cc3c2)n1 (stereo not drawn) [Compound 1153, 2-pyrrolidin-3-ylethyl 6-[5-(6-methyl-2-pyridyl)-1H-imidazol-4-yl]quinoline-3-carboxylate] | 0.0398 to 0.316 | 25.1 to 158
Cc1cccc(-c2[nH]cnc2-c2ccc3ncc(-c4ccc5c(c4)CC[C@H]5N)cc3c2)n1 [Compound 1154, (1R)-5-[6-[5-(6-methyl-2-pyridyl)-1H-imidazol-4-yl]-3-quinolyl]indan-1-amine] | < 0.0316 | < 20
Cc1cccc(-c2[nH]ncc2-c2ccc3nccc(C(=O)O[C@H]4CC[C@@](C)(N)CC4)c3c2)n1 [Compound 1155, (4-amino-4-methyl-cyclohexyl) 6-[5-(6-methyl-2-pyridyl)-1H-pyrazol-4-yl]quinoline-4-carboxylate] | 3.98 to 31.6 | 200 to 1260
Cc1cccc(-c2[nH]cnc2-c2ccc3ncc(-c4cc(C(=O)OCC5CNC5)ccn4)cc3c2)n1 [Compound 1157, azetidin-3-ylmethyl 2-[6-[5-(6-methyl-2-pyridyl)-1H-imidazol-4-yl]-3-quinolyl]pyridine-4-carboxylate] | 0.0398 to 0.316 | 25.1 to 158
Cc1cccc(-c2[nH]cnc2-c2ccc3ncc(-c4ncc(C(=O)O[C@H]5CCNC5)cn4)cc3c2)n1 [Compound 1158, [(3S)-pyrrolidin-3-yl] 2-[6-[5-(6-methyl-2-pyridyl)-1H-imidazol-4-yl]-3-quinolyl]pyrimidine-5-carboxylate] | 0.0398 to 0.316 | 25.1 to 158
Cc1cccc(-c2[nH]cnc2-c2ccc3ncc(-c4ncc(C(=O)O[C@H]5CCNC5)s4)cc3c2)n1 [Compound 1160, [(3S)-pyrrolidin-3-yl] 2-[6-[5-(6-methyl-2-pyridyl)-1H-imidazol-4-yl]-3-quinolyl]thiazole-5-carboxylate] | < 0.0316 | < 20
Cc1cccc(-c2[nH]cnc2-c2ccc3nccc(C(=O)O[C@H]4CC[C@@](C)(N)CC4)c3c2)n1 [Compound 1161, (4-amino-4-methyl-cyclohexyl) 6-[5-(6-methyl-2-pyridyl)-1H-imidazol-4-yl]quinoline-4-carboxylate] | 3.98 to 31.6 | 200 to 1260
Cc1cccc(-c2[nH]cnc2-c2ccc3ncc(NCC(=O)O)cc3c2)n1 [Compound 1162, 2-[[6-[5-(6-methyl-2-pyridyl)-1H-imidazol-4-yl]-3-quinolyl]amino]acetic acid] | 0.398 to 3.16 | 200 to 1260
Cc1cccc(-c2[nH]cnc2-c2ccc3ncc(-c4ccc(C(=O)OC[C@@H]5CCCN5)cn4)cc3c2)n1 [Compound 1163, [(2S)-pyrrolidin-2-yl]methyl 6-[6-[5-(6-methyl-2-pyridyl)-1H-imidazol-4-yl]-3-quinolyl]pyridine-3-carboxylate] | 0.0398 to 0.316 | 25.1 to 158
Cc1cccc(-c2[nH]ncc2-c2ccc3ncc(C(=O)OCCC4CCNC4)cc3c2)n1 (stereo not drawn) [Compound 1164, 2-pyrrolidin-3-ylethyl 6-[5-(6-methyl-2-pyridyl)-1H-pyrazol-4-yl]quinoline-3-carboxylate] | 0.0398 to 0.316 | 25.1 to 158
Cc1cccc(-c2[nH]cnc2-c2ccc3ncc(-c4ccc(C(=O)OC[C@@H]5CCCCN5)cn4)cc3c2)n1 [Compound 1165, [(2S)-2-piperidyl]methyl 6-[6-[5-(6-methyl-2-pyridyl)-1H-imidazol-4-yl]-3-quinolyl]pyridine-3-carboxylate] | 0.0398 to 0.316 | 25.1 to 158
Cc1cccc(-c2[nH]cnc2-c2ccc3ncc(-c4ncc(C(=O)O[C@@H]5CCNC5)s4)cc3c2)n1 [Compound 1166, [(3R)-pyrrolidin-3-yl] 2-[6-[5-(6-methyl-2-pyridyl)-1H-imidazol-4-yl]-3-quinolyl]thiazole-5-carboxylate] | 0.0398 to 0.316 | 25.1 to 158
Cc1cccc(-c2[nH]cnc2-c2ccc3ncc(-c4ccc(C(=O)OCCN5CC[C@@H](N)C5)cn4)cc3c2)n1 [Compound 1167, 2-[(3R)-3-aminopyrrolidin-1-yl]ethyl 6-[6-[5-(6-methyl-2-pyridyl)-1H-imidazol-4-yl]-3-quinolyl]pyridine-3-carboxylate] | 0.0398 to 0.316 | 25.1 to 158
Cc1cccc(-c2[nH]cnc2-c2ccc3ncc(-c4ccc(C(=O)OCCN5C[C@@H](C)N[C@@H](C)C5)cn4)cc3c2)n1 [Compound 1168, 2-[rac-(3S,5R)-3,5-dimethylpiperazin-1-yl]ethyl 6-[6-[5-(6-methyl-2-pyridyl)-1H-imidazol-4-yl]-3-quinolyl]pyridine-3-carboxylate] | 0.0398 to 0.316 | 25.1 to 158
Cc1cccc(-c2[nH]cnc2-c2ccc3ncc(-c4csc(C(=O)OCCC5CNC5)c4)cc3c2)n1 [Compound 1169, 2-(azetidin-3-yl)ethyl 4-[6-[5-(6-methyl-2-pyridyl)-1H-imidazol-4-yl]-3-quinolyl]thiophene-2-carboxylate] | < 0.0316 | 25.1 to 158
Cc1cccc(-c2[nH]cnc2-c2ccc3ncc(-c4ccc(C(=O)OC[C@H]5CCCN5)cn4)cc3c2)n1 [Compound 1170, [(2R)-pyrrolidin-2-yl]methyl 6-[6-[5-(6-methyl-2-pyridyl)-1H-imidazol-4-yl]-3-quinolyl]pyridine-3-carboxylate] | 0.0398 to 0.316 | 25.1 to 158
Cc1cccc(-c2[nH]cnc2-c2ccc3ncc(-c4csc(C(=O)OC[C@H]5CC[C@H](N)CC5)c4)cc3c2)n1 [Compound 1171, (4-aminocyclohexyl)methyl 4-[6-[5-(6-methyl-2-pyridyl)-1H-imidazol-4-yl]-3-quinolyl]thiophene-2-carboxylate] | < 0.0316 | 25.1 to 158
Cc1cccc(-c2[nH]cnc2-c2ccc3ncc(-c4nc(C(=O)OCCN5CCC[C@H](N)C5)cs4)cc3c2)n1 [Compound 1172, 2-[(3S)-3-amino-1-piperidyl]ethyl 2-[6-[5-(6-methyl-2-pyridyl)-1H-imidazol-4-yl]-3-quinolyl]thiazole-4-carboxylate] | < 0.0316 | 200 to 1260
Cc1cccc(-c2[nH]ncc2-c2ccc3ncc(C(=O)OCCN4CCCCC4)cc3c2)n1 [Compound 1173, 2-(1-piperidyl)ethyl 6-[5-(6-methyl-2-pyridyl)-1H-pyrazol-4-yl]quinoline-3-carboxylate] | 0.0398 to 0.316 | 25.1 to 158
Cc1cccc(-c2[nH]cnc2-c2ccc3ncc(-c4ccc(C(=O)OCCN5CCC[C@@H](N)C5)cn4)cc3c2)n1 [Compound 1174, 2-[(3R)-3-amino-1-piperidyl]ethyl 6-[6-[5-(6-methyl-2-pyridyl)-1H-imidazol-4-yl]-3-quinolyl]pyridine-3-carboxylate] | 0.0398 to 0.316 | 25.1 to 158
